Test results from patent publication US20250381180A1, “METHODS OF TREATING OR PREVENTING OVERACTIVE BLADDER SYNDROME” (Purdue Pharma L.P., priority 2022, published 2025).

What was measured:
[1] = Phase 1 single-dose pharmacokinetics, mild renal impairment vs normal renal function; type: in vivo, human; details: single oral 1.0-mg immediate-release tablet
Procedure: This was a phase 1, nonrandomized, open-label, parallel-group, single-dose study. A total of 20 subjects (10 subjects with mild renal impairment and 10 healthy subjects with normal renal function) were studied.
At screening, subjects were assigned to a study group according to estimated glomerular filtration rate (eGFR), calculated using the 2021 Chronic Kidney Disease Collaboration (CKD-EPI 2021) formula as follows, in Table 11: […]
Subjects remained fasted for 4 hours after study drug dosing (except diabetic subjects, who were allowed a light breakfast at 2 hours after study drug dosing as judged by the investigator). Except as part of study drug administration, subjects restricted their consumption of water for 2 hours before dosing and for 2 hours after dosing. At all other times during the study, subjects were able to consume water ad libitum.

[2] = Urine concentrations in humans after a single oral dose; type: in vivo, human; details: LLOQ 229 nM
conscious BOO rats = assay: Cystometric parameters in conscious bladder outlet obstruction (BOO) rats; type: in vivo, rat
Procedure: Test substance effects were compared to those of the reference substance, mirabegron, marketed for overactive bladder.
• At W-6, a partial ligature of the urethra was performed. • At W-6, during 3 consecutive days, rats were treated daily with gentamycin and Ketofen® The bladder was emptied manually once a day. • From W-6 to W-1 animals were monitored and weighed once per week. • At W0 (D-2), catheters were implanted under isoflurane anesthesia. • At D0, cystometry was performed.
Appropriate amount of Cpd (IA) was weighed and dissolved in vehicle to obtain the dosing solution with the target concentration of 3 mg/mL (as free base). […]
[…] Mirabegron (from Kemprotec) was prepared fresh on the day of administration at a final concentration of 2 mg/mL (free base form). Appropriate mass of mirabegron was weighed and dissolved in vehicle (0.5% MC) at room temperature.

[3] = 3 mg/kg i.v., 0-90 min entire period
[4] = 3 mg/kg i.v., 60-90 min interval period
[5] = i.g., 60-90 min interval period

plasma concentrations at 72 and 96 hours ([1]; all subjects): all below the limit of quantitation
plasma concentrations over time, mild renal impairment versus normal renal function ([1]; n=10 per group): comparable
Urine Conc., mean ([2]; single oral dose 0.2 mg, 16 to 24 h): BCL
Urine Conc., mean ([2]; single oral dose 0.2 mg, 24 to 32 h): BCL
Urine Conc., mean ([2]; single oral dose 0.2 mg, 32 to 40 h): BCL
Urine Conc., mean ([2]; single oral dose 0.2 mg, 40 to 48 h): BCL
Urine Conc., mean ([2]; single oral dose 0.6 mg, 16 to 24 h): BCL
Urine Conc., mean ([2]; single oral dose 0.6 mg, 24 to 32 h): BCL
Urine Conc., mean ([2]; single oral dose 0.6 mg, 32 to 40 h): BCL
Urine Conc., mean ([2]; single oral dose 0.6 mg, 40 to 48 h): BCL
Urine Conc., mean ([2]; single oral dose 2 mg, 16 to 24 h): 409 nM
Urine Conc., mean ([2]; single oral dose 2 mg, 24 to 32 h): BCL
Urine Conc., mean ([2]; single oral dose 2 mg, 32 to 40 h): BCL
Urine Conc., mean ([2]; single oral dose 2 mg, 40 to 48 h): BCL
Urine Conc., mean ([2]; single oral dose 10 mg, 16 to 24 h): 1004 nM
Urine Conc., mean ([2]; single oral dose 10 mg, 40 to 48 h): BCL
Compound: O=C(O)c1nc2ccccc2n([C@H]2C[C@H]3CCC[C@@H](C2)N3C2CC3CCCC(C3)C2)c1=O (stereo partly shown) [Cpd (IA)]
AM (mmHg or % variation), effect versus vehicle (conscious BOO rats; [3]): not significantly modified
AM, effect versus basal (conscious BOO rats; [3]): did not significantly modify
BC expressed in % variation from basal, effect versus vehicle (conscious BOO rats; [3]): significantly decreased
BC expressed in mL, effect versus vehicle (conscious BOO rats; [3]): no significant difference
NVC amplitude (mmHg and % variation), effect versus vehicle (conscious BOO rats; [3]): not significantly modified
NVC amplitude, effect versus basal (conscious BOO rats; [3]): did not modify
NVC frequency (NVC/min or % variation), effect versus vehicle (conscious BOO rats; [3]): not significantly modified
NVC frequency, effect versus basal (conscious BOO rats; [3]): did not affect
ThP expressed in mmHg, effect versus vehicle (conscious BOO rats; [3]): not significantly modified
ThP, effect versus basal (conscious BOO rats; [3]): no significant effect
ThP expressed in % variation from basal, effect versus vehicle (conscious BOO rats; 3 mg/kg i.v., 0-90 min entire period, p=0.0504): decreased after Cpd (IA) treatment, the p value was close to the significance
AM (mmHg or % variation), effect versus vehicle (conscious BOO rats; [4]): no effect
AM, effect versus basal (conscious BOO rats; [4]): did not significantly modify
BC (mL and % variation), effect versus vehicle (conscious BOO rats; [4]): no significant difference
NVC amplitude (mmHg and % variation), effect versus vehicle (conscious BOO rats; [4]): not significantly modified
NVC amplitude, effect versus basal (conscious BOO rats; [4]): without any effect
NVC frequency (NVC/min or % variation), effect versus vehicle (conscious BOO rats; [4]): unaffected
NVC frequency, effect versus basal (conscious BOO rats; [4]): no significant effect
ThP expressed in % variation from basal, effect versus vehicle (conscious BOO rats; [4]): significantly decreased
ThP expressed in mmHg, effect versus vehicle (conscious BOO rats; [4]): not significantly modified
ThP, effect versus basal (conscious BOO rats; [4]): significantly decreased
BC, effect versus basal (conscious BOO rats; Cpd (IA) 3 mg/kg i.v., 0-90 min entire period): did not significantly modify
BC, effect versus basal (conscious BOO rats; Cpd (IA) 3 mg/kg i.v., 60-90 min interval period): neither vehicle nor Cpd (IA) had a significant effect
% of variation from basal values of BC (conscious BOO rats; Cpd (IA) 30 mg/kg i.g., 0-90 min entire period, vehicle 11±6): −13±6%
AM (mmHg or % variation), effect versus vehicle (conscious BOO rats; i.g., 0-90 min entire period): not significantly modified
AM, effect versus basal (conscious BOO rats; i.g., 0-90 min entire period): did not significantly modify
BC expressed in % variation from basal, effect versus vehicle (conscious BOO rats; i.g., 0-90 min entire period): significantly decreased
BC expressed in mL, effect versus vehicle (conscious BOO rats; i.g., 0-90 min entire period): no significant difference
NVC amplitude expressed in % variation from basal, effect versus vehicle (conscious BOO rats; i.g., 0-90 min entire period): remained unaffected
NVC amplitude expressed in mmHg, effect versus vehicle (conscious BOO rats; i.g., 0-90 min entire period): not significantly modified
NVC amplitude, effect versus basal (conscious BOO rats; i.g., 0-90 min entire period): did not modify
NVC frequency (NVC/min or % variation), effect versus vehicle (conscious BOO rats; i.g., 0-90 min entire period): not significantly modified
NVC frequency, effect versus basal (conscious BOO rats; i.g., 0-90 min entire period): did not affect
ThP expressed in % variation from basal, effect versus vehicle (conscious BOO rats; i.g., 0-90 min entire period): significantly decreased
ThP expressed in mmHg, effect versus vehicle (conscious BOO rats; i.g., 0-90 min entire period): not significantly modified
ThP, effect versus basal (conscious BOO rats; i.g., 0-90 min entire period): did not modify
AM (mmHg or % variation), effect versus vehicle (conscious BOO rats; [5]): no effect
AM, effect versus basal (conscious BOO rats; [5]): did not significantly modify
BC expressed in % variation from basal, effect versus vehicle (conscious BOO rats; [5]): significantly decreased
BC expressed in mL, effect versus vehicle (conscious BOO rats; [5]): no significant difference
NVC amplitude expressed in % variation from basal, effect versus vehicle (conscious BOO rats; [5]): not significantly modified
NVC amplitude expressed in mmHg, effect versus vehicle (conscious BOO rats; [5]): not significantly modified
NVC amplitude, effect versus basal (conscious BOO rats; [5]): without any effect
NVC frequency (NVC/min or % variation), effect versus vehicle (conscious BOO rats; [5]): unaffected
NVC frequency, effect versus basal (conscious BOO rats; [5]): did not affect
ThP expressed in % variation from basal, effect versus vehicle (conscious BOO rats; [5]): significantly decreased
ThP expressed in mmHg, effect versus vehicle (conscious BOO rats; [5]): not significantly modified
ThP, effect versus basal (conscious BOO rats; [5]): significantly decreased
BC, effect versus basal (conscious BOO rats; i.g., Cpd (IA) 30 mg/kg, mirabegron 10 mg/kg, 0-90 min entire period): significantly decreased
BC, effect versus basal (conscious BOO rats; i.g., Cpd (IA) 30 mg/kg, mirabegron 10 mg/kg, 60-90 min interval period): significantly decreased
all other cystometric parameters (than BC and ThP), effect versus vehicle (conscious BOO rats; i.v., conclusions): no effect
